Results from the METLIN SMRT retention time set (Domingo-Almenara et al. 2019).

Assay: gradient 5% acetonitrile 3 min, to 50% in 2 min, to 85% in 15 min, held 3 min, 100 µL/min
Details: column: Zorbax Extend-C18 2.1 x 50 mm; eluents: water / acetonitrile, 0.1% formic acid
In short: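 Retention time was recorded from adduct peaks, which were picked computationally and each inspected manually. Pure standards ran in mixtures of ~100 molecules on HPLC coupled to a quadrupole time-of-flight mass spectrometer, in positive and negative ionization mode, through a Zorbax Extend-C18 column (2.1 × 50 mm, 1.8 μm) at 100 μL/min. Eluents were water and acetonitrile, each with 0.1% formic acid.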

Row | Compound | RP-LC retention time [s]
1 | CN1CC2(CCCC2)N(C(=O)COc2ccc(Cl)cc2)CC1=O | 799
2 | Cc1noc(C2(NC(=O)c3ccc4ccccc4n3)CCCCC2)n1 | 1060
3 | CC(C)C(=O)Nc1ccc(C2(C(=O)NCc3ccco3)CCCCC2)cc1 | 889
4 | CSc1ncccc1C(=O)NCc1ccc2c(c1)ncn2C(C)C | 585
5 | Cc1ccn2cc(-c3ccc(NS(=O)(=O)c4ccc(Br)cc4)cc3)nc2n1 | 689
6 | O=C(Cn1cnc2nc(N3CCC(C(=O)NC4CC4)CC3)sc2c1=O)Nc1cccc(Cl)c1 | 679
7 | CCCNC(=O)C1CCN(c2nccnc2Sc2cccc(C)c2)CC1 | 946
8 | O=C(NCC(O)c1ccc(C(F)(F)F)cc1)C(=O)Nc1ccc(F)cc1F (configuration not stated) | 880
9 | O=C(c1ccc(=O)[nH]n1)N1CCN(S(=O)(=O)C2CC2)CC1 | 552
10 | O=C1NCCCCCCN(C(=O)c2cc(CN3CCOCC3)on2)[C@H]2CCCC[C@@H]12 | 621
11 | Cc1nn(Cc2ccc(C(=O)NC3CC3)cc2)c(C)c1S(=O)(=O)N1CCCCC1 | 765
12 | Cc1ccc(-c2nc(-c3ccc4c(c3)nc(C)c(=O)n4C)no2)cc1C | 1180
13 | Cc1ccc(C(=O)N2CC(n3cc(COc4ccc(F)cc4)nn3)C2)c(=O)[nH]1 | 655
14 | CCn1cc(C(=O)Nc2cccc(Cl)c2)c2cccnc21 | 938
15 | Cc1cccc(-c2noc(C3CCCN3C(=O)c3cccc(Cl)c3)n2)c1 (configuration not stated) | 1140
16 | COc1ccc(NC(=O)NC2CCN(c3ccc(F)c(C)c3)C2=O)cc1 (configuration not stated) | 798
17 | CCCN1C(=O)COc2cc(-c3noc(C(=O)NC(C)CC)n3)ccc21 (configuration not stated) | 950
18 | COc1ccc2nc(C(=O)NCc3cccc(Cl)c3)cn2n1 | 846
19 | Cc1[nH]c(C(=O)N2CCCC(C(=O)NC(C)c3ccccc3)C2)c(C)c1C(=O)OC(C)C (configuration not stated) | 896
20 | CCOC(=O)c1ccc(NC(=O)CN2CCC(C)CC2)cc1 | 561

Row | Compound | RP-LC retention time [s]
21 | Cc1ccc(-c2nc(C3CCN(C(=O)C4CC(=O)N(c5ccc(C)c(C)c5)C4)CC3)no2)cc1 (configuration not stated) | 1070
22 | COc1ccc(-c2nc3cnccn3c2NCCC(=O)NC(C)C)cc1 | 609
23 | CC(C)CN1CCN(Cc2nc(-c3ccc(N4CCCCC4)nc3)no2)CC1 | 596
24 | Cc1nc(-c2ccc(-c3noc(C(C)Oc4ccccc4)n3)cc2)cs1 (configuration not stated) | 1210
25 | CC(C)OCCCNC(=O)c1cn(C)cc2c(=O)n(-c3ccccc3)nc1-2 | 851
26 | Cc1ccc(C)c(NC(=O)N2CCC(n3cnc4ccc(Cl)cc4c3=O)CC2)c1 | 929
27 | CSc1nnc(-c2nn(C)c3c2CN(C(=O)c2ccc(F)cc2)CC3)n1C | 656
28 | Cc1ccc(-c2nnc(SCc3noc(CCC(=O)Nc4ccc(F)c(Cl)c4)n3)o2)cc1 | 1020
29 | CCc1nn2c(CNS(=O)(=O)Cc3ccccc3F)c(-c3ccccc3)nc2s1 | 948
30 | Cc1noc(C)c1S(=O)(=O)N1CCC2(CC1)N(c1ccccc1)C(=O)CS2=O (configuration not stated) | 708
31 | COCCN1C(=O)c2ccccc2C(C(=O)NCc2ccccc2)C1c1cccs1 (configuration not stated) | 842
32 | O=C(c1cc(S(=O)(=O)N2CCCC(C(=O)N3CCc4ccccc43)C2)c[nH]1)N1CCCCCC1 (configuration not stated) | 949
33 | Cc1nc(-c2ccc(C(F)(F)F)cc2)ncc1C(=O)NCCc1cccs1 | 1120
34 | CC(=O)Nc1nc(-c2ccc(F)c(F)c2)cs1 | 766
35 | CCn1cc(-c2nc(C)c(C(=O)Nc3cc(F)cc(F)c3)s2)c2cccnc21 | 1120
36 | CCOc1cccc(-c2noc(-c3nnn4c3COC(c3ccc(Cl)cc3)C4)n2)c1 (configuration not stated) | 1320
37 | CCn1cc2c3c(cccc31)CN(C(=O)Nc1cc(C)cc(C)c1)CC2 | 1070
38 | CN1C(=O)[C@H]2CN(Cc3cccc4[nH]ccc34)C[C@H]2C1=O | 552
39 | CCc1nc(-c2c(C)cc(C)nc2NC(=O)c2ccccc2Br)no1 | 828
40 | Cc1sc(NC(=O)COc2ccc(Cl)cc2)nc1-c1ccc2c(c1)NC(=O)CO2 | 873

Row | Compound | RP-LC retention time [s]
41 | Cc1coc2cc3oc(=O)c(CC(=O)N4CCC(C(N)=O)CC4)c(C)c3cc12 | 654
42 | O=C(CCNc1cnc2cnccn12)NCc1ccc(C(F)(F)F)cc1 | 611
43 | CCOC(=O)C1CCN(C(=O)C2CCCN(c3cnc4nccnc4c3)C2)CC1 (configuration not stated) | 686
44 | COc1ccc(NC2CS(=O)(=O)CC2O)cc1 (configuration not stated) | 592
45 | CCn1cnc(S(=O)(=O)N2CCC(C(=O)Nc3cccc(-c4ccno4)c3)CC2)c1 | 724
46 | COc1ccc2[nH]c(=O)c(CCC(=O)NCc3ccc(OC)c(OC)c3)cc2c1 | 648
47 | Cc1nc2cc(-c3noc(C4CC(=O)N(c5cccc(Cl)c5)C4)n3)ccc2o1 (configuration not stated) | 958
48 | Cc1ccc(-n2ccc(=O)c(-c3nc(-c4ccccc4C)no3)n2)cc1 | 987
49 | Cc1nn(C)cc1S(=O)(=O)Nc1c(C)n(C)n(-c2ccccc2)c1=O | 722
50 | CCc1noc(NC(C)=O)c1-c1ccc(OC)c(S(=O)(=O)NCc2ccccc2OC)c1 | 791
51 | CCN1CCN(CCCNC(=O)Cn2cnc3nc4c(cc3c2=O)CCCC4)CC1 | 554
52 | O=C(COc1ccc(Cl)cc1)NCC1CCOCC1 | 764
53 | CC1Cc2ccccc2N1S(=O)(=O)c1cc2c3c(c1)CCC(=O)N3CCC2 (configuration not stated) | 961
54 | COc1ccc(-c2csc3c(=O)n(CC(=O)NCc4ccco4)cnc23)cc1 | 764
55 | COc1ccc(C(C)NC(=O)Cc2cn(C)c3ncccc23)cc1OC (configuration not stated) | 640
56 | O=C(Cn1nc2c(cc1=O)CCCCC2)NCCc1nc(-c2ccccc2)cs1 | 843
57 | O=C(Cc1ccccc1Cl)NC1CCN(c2cc(-c3cccs3)[nH]n2)C1 (configuration not stated) | 738
58 | Cc1ccc(CN2C[C@@H]3C(=O)N(C)C(=O)[C@@H]3C2)cc1C | 604
59 | CCn1cnc(S(=O)(=O)N2CCCC(C(=O)NCc3ccccc3)C2)c1 (configuration not stated) | 768
60 | O=C(Cn1cc(Cl)cn1)N1CCCC1c1cccc(F)c1 (configuration not stated) | 836

The remaining lines, values ahead:

Row | RP-LC retention time [s] | Compound
61 | 913 | COc1ccc(CN2CC3(CCN(S(=O)(=O)c4ccccc4Cl)CC3)C2=O)cc1
62 | 1130 | COc1ccccc1NC(=O)C(=O)c1cn(CC(=O)N2CCCC2)c2ccccc12
63 | 684 | O=C(CN1CCC(c2nc(-c3cccs3)no2)CC1)NCc1ccc(F)cc1
64 | 866 | O=C(Cc1ccc(NC(=O)c2ncc(-c3ccccc3)o2)cc1)NCc1cccs1
65 | 1070 | Cc1ccc(-c2noc(Cn3c(=O)n(-c4cccc(C)c4)c(=O)c4sccc43)n2)cc1
66 | 951 | CC(NC(=O)C1CCCN(c2nc3ccsc3c(=O)n2Cc2ccccc2)C1)c1ccc(F)cc1 (configuration not stated)
67 | 1050 | CCc1nn(C)c(=O)c2cc(S(=O)(=O)N3CCC(Cc4ccccc4)CC3)cn12
68 | 614 | Cn1ccc2c(cc(C(=O)NCc3ccc(N4CCOCC4)cc3)n2C)c1=O
69 | 1280 | O=C(COc1ccccc1)Nc1ccc(-c2nc(-c3ccc(Cl)cc3)no2)cc1
70 | 694 | CCCCN1C(=O)C(C)(C(=O)NC2CCN(Cc3ccccc3)CC2)Oc2cccnc21 (configuration not stated)
71 | 645 | O=C(c1ccc(Cn2c(=O)c3cccn3c3cccnc32)cc1)N1CCN(c2ccccn2)CC1
72 | 987 | Cc1nc2ccccc2c(=O)n1Cc1noc(-c2ccc(C(F)(F)F)cc2)n1
73 | 712 | Cc1nn(-c2ccc(C(=O)N3CCN(C(=O)c4ccco4)CC3)cc2)c2c1C(=O)CC(C)(C)C2
74 | 819 | Cc1ccc(CN2C(=O)NC3(CCN(C(=O)c4ccc5c(c4)OCO5)CC3)C2=O)cc1
75 | 951 | CSc1ccc(CNC(=O)C2CCCN(c3nccn4nc(-c5ccc(F)cc5)cc34)C2)cc1 (configuration not stated)
76 | 850 | Cc1ccc(CC(=O)N2CCC3(C2)C(=O)N(C)c2ccccc23)cc1 (configuration not stated)
77 | 938 | O=c1n(Cc2ccc(F)cc2)nc2c(S(=O)(=O)N3CCc4ccccc4C3)cccn12
78 | 774 | O=C(NCc1cccc(F)c1)N1CCC(n2c(-c3ccco3)nc3cccnc32)C1 (configuration not stated)
79 | 790 | Cc1ccc(C)c(N2CCN(C(=O)Cn3c(=O)c4nncn4c4ncccc43)CC2)c1
80 | 887 | Cc1oc(-c2ccc(NC(=O)COc3ccccc3)cc2)nc1Cn1cccn1
81 | 704 | CCN(C(=O)Cn1c(CN(C)C(=O)c2ccco2)nc2ccccc21)c1ccccc1
82 | 1030 | COc1ccc(N2CCN(c3cc(SCC(=O)Nc4ccccc4F)ncn3)CC2)cc1
83 | 752 | O=C(Nc1c(-c2ccc(F)cc2)nc2ccccn12)c1ccc2ccccc2c1
84 | 718 | O=C1C(N2CCN(S(=O)(=O)c3ccc(Cl)cc3)CC2)CCN1CCc1ccccc1 (configuration not stated)
85 | 570 | O=C(CCc1c(-c2ccc(Cl)cc2)nc2ccccn12)NCc1cccnc1
86 | 656 | O=C(Cc1ccc(Cl)cc1)N1CCN(c2cnn3cnnc3c2)CC1
87 | 960 | CC(=O)N1CCc2cc(S(=O)(=O)C(C)CC(=O)N3CCN(Cc4ccccc4)CC3)ccc21 (configuration not stated)
